The source of these data is ChEMBL document CHEMBL1909046, “DrugMatrix in vitro pharmacology data”.

Chain of Tyrosine-protein kinase Lck (P06239 whole entry): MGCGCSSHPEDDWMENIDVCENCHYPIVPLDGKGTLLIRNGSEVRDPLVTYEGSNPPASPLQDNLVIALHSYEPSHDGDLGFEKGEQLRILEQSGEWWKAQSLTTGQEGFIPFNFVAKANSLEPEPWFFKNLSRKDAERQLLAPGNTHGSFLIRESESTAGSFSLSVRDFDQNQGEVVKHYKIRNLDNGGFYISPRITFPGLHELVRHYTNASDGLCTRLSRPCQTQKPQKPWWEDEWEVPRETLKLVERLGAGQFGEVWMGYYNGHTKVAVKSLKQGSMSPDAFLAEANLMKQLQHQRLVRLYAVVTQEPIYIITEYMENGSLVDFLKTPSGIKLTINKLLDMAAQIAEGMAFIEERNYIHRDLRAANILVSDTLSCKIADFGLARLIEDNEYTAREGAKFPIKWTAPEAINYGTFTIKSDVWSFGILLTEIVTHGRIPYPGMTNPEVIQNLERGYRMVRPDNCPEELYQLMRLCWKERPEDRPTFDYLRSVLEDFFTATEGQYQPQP
Chain of Receptor tyrosine-protein kinase erbB-2 (P04626 whole entry): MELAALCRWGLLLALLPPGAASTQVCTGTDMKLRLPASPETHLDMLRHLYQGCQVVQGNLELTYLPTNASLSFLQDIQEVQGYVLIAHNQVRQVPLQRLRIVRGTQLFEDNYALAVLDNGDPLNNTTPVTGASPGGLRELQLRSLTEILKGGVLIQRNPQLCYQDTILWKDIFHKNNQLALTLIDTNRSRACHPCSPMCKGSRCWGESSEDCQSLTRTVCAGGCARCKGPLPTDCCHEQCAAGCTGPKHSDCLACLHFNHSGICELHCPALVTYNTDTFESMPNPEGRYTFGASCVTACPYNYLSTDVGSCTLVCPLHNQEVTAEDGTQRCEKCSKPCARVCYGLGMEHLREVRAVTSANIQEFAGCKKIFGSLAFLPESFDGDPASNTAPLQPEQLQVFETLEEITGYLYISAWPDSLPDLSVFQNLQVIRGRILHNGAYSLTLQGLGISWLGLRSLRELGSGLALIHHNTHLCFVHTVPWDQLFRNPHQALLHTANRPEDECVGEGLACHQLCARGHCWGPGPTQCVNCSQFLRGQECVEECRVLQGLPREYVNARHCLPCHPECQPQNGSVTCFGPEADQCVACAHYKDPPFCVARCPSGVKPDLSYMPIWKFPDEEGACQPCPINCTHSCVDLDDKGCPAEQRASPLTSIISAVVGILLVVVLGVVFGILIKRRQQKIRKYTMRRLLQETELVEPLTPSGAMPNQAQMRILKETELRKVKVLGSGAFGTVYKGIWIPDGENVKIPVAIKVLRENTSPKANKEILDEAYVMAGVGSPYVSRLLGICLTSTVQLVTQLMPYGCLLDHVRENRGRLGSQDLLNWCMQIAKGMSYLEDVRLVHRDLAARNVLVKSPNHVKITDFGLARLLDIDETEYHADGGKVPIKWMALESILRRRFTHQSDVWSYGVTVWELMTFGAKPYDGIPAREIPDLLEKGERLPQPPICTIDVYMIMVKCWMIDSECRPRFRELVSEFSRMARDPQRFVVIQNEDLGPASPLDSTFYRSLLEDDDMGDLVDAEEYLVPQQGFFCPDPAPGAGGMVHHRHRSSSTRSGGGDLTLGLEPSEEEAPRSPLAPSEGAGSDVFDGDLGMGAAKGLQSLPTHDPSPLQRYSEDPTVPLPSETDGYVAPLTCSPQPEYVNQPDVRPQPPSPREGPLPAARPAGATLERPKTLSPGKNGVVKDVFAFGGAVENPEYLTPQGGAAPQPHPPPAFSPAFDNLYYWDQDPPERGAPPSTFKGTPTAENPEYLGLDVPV

One experiment concerns the target Receptor tyrosine-protein kinase erbB-2 (Homo sapiens, UniProt P04626). Nature of the experiment: biochemical. The class given is cell-based, Insect cells. Particulars: insect cells.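 Note: inhibition of HER2 kinase enzyme activity, measured with Poly(Glu:Tyr) as the phosphorylation substrate; in other assays of this panel Not Active means under 50% inhibition at 10 µM.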
As to `C=C1CC[C@H](O)C/C1=C/C=C1\CCC[C@]2(C)[C@@H]([C@H](C)/C=C/[C@H](C)C(C)C)CC[C@@H]12` [ERGOCALCIFEROL], the IC50 entry is “Not Active”.
Take `COc1c(N2CCNC(C)C2)c(F)cc2c(=O)c(C(=O)O)cn(C3CC3)c12` (stereo not drawn) [GATIFLOXACIN]: the IC50 result is “Not Active”.
In the case of `CCC1(c2ccccc2)C(=O)NCNC1=O` [PRIMIDONE], the IC50 result is “Not Active”.
As to `O=C1NC(=O)C(c2ccccc2)(c2ccccc2)N1` [PHENYTOIN], the IC50 result is “Not Active”.
As to `COc1ccc2c(c1)c(CC(=O)OCC(=O)O)c(C)n2C(=O)c1ccc(Cl)cc1` [ACEMETACIN], the IC50 entry is “Not Active”.
In the case of `CC[N+](CC)(CC)CCOc1cccc(OCC[N+](CC)(CC)CC)c1OCC[N+](CC)(CC)CC.[I-].[I-].[I-]` [GALLAMINE TRIETHIODIDE], the IC50 result is on record as “Not Active”.

Test system in the next experiment: not listed separately
In words: DRUGMATRIX: Platelet-Derived Growth Factor (PDGF) radioligand binding (ligand: [125I] PDGF). The class given is cell-based. As to conditions: nih3t3; Not Active = under 50% inhibition at 10 µM.
With `C=C1CC[C@H](O)C/C1=C/C=C1\CCC[C@]2(C)[C@@H]([C@H](C)/C=C/[C@H](C)C(C)C)CC[C@@H]12` [ERGOCALCIFEROL], the IC50 result was “Not Active” and the Ki result is “Not Active”.
Regarding `COc1c(N2CCNC(C)C2)c(F)cc2c(=O)c(C(=O)O)cn(C3CC3)c12` (stereo not drawn) [GATIFLOXACIN], the IC50 entry was “Not Active” and the Ki entry is listed as “Not Active”.
As for `CCC1(c2ccccc2)C(=O)NCNC1=O` [PRIMIDONE], the IC50 entry is recorded as “Not Active” and the Ki entry is reported as “Not Active”.
For `O=C1NC(=O)C(c2ccccc2)(c2ccccc2)N1` [PHENYTOIN], the IC50 result is “Not Active” and the Ki entry was “Not Active”.
Take `COc1ccc2c(c1)c(CC(=O)OCC(=O)O)c(C)n2C(=O)c1ccc(Cl)cc1` [ACEMETACIN]: the IC50 result was “Not Active” and the Ki result is on record as “Not Active”.
For `CC[N+](CC)(CC)CCOc1cccc(OCC[N+](CC)(CC)CC)c1OCC[N+](CC)(CC)CC.[I-].[I-].[I-]` [GALLAMINE TRIETHIODIDE], the IC50 entry was “Not Active” and the Ki entry was “Not Active”.

A further experiment has as its target Tyrosine-protein kinase Lck (Homo sapiens, UniProt P06239). In words: DRUGMATRIX: Protein Tyrosine Kinase, LCK enzyme inhibition (substrate: Poly(Glu:Tyr)). The class given is cell-based, Insect cells. As to conditions: insect cells; Not Active = under 50% inhibition at 10 µM.
Turning to `C=C1CC[C@H](O)C/C1=C/C=C1\CCC[C@]2(C)[C@@H]([C@H](C)/C=C/[C@H](C)C(C)C)CC[C@@H]12` [ERGOCALCIFEROL], the IC50 result is recorded as “Not Active”.
For the compound `COc1c(N2CCNC(C)C2)c(F)cc2c(=O)c(C(=O)O)cn(C3CC3)c12` (stereo not drawn) [GATIFLOXACIN], the IC50 entry is recorded as “Not Active”.
Regarding `CCC1(c2ccccc2)C(=O)NCNC1=O` [PRIMIDONE], the IC50 result was “Not Active”.
Same read-out and setting: next, `O=C1NC(=O)C(c2ccccc2)(c2ccccc2)N1` [PHENYTOIN]: “Not Active”; `COc1ccc2c(c1)c(CC(=O)OCC(=O)O)c(C)n2C(=O)c1ccc(Cl)cc1` [ACEMETACIN]: “Not Active”.
Consider `CC[N+](CC)(CC)CCOc1cccc(OCC[N+](CC)(CC)CC)c1OCC[N+](CC)(CC)CC.[I-].[I-].[I-]` [GALLAMINE TRIETHIODIDE], for which the IC50 result was “Not Active”.

The next experiment concerns the target T1, Glucocorticoid receptor (Homo sapiens, UniProt P04150). Note: in other assays of this panel Not Active means under 50% inhibition at 10 µM.
T1 sequence (P04150 whole entry): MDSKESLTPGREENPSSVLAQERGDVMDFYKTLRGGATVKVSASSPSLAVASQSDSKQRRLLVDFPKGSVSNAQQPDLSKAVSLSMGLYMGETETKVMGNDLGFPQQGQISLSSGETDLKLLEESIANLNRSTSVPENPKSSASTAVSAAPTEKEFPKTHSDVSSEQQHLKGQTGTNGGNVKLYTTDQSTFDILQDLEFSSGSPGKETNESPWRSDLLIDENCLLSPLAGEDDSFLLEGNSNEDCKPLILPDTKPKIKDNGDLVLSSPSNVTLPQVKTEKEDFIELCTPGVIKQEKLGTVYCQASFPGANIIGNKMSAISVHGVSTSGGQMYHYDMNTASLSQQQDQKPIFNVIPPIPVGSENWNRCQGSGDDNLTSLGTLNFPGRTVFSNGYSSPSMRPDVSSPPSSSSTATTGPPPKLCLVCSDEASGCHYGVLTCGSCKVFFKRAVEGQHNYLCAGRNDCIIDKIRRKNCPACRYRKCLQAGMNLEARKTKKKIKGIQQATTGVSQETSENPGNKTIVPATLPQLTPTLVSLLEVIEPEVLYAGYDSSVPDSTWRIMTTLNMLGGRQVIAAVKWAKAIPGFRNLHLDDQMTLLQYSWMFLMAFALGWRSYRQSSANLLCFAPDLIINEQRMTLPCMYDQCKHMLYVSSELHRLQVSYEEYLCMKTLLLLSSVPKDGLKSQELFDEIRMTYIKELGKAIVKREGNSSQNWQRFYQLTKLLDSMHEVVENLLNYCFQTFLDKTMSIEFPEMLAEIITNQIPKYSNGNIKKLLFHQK
Experiment: not given
As to conditions: hela s3.
As to `C=C1CC[C@H](O)C/C1=C/C=C1\CCC[C@]2(C)[C@@H]([C@H](C)/C=C/[C@H](C)C(C)C)CC[C@@H]12` [ERGOCALCIFEROL], the IC50 entry is on record as “Not Active”.
In the case of `COc1c(N2CCNC(C)C2)c(F)cc2c(=O)c(C(=O)O)cn(C3CC3)c12` (stereo not drawn) [GATIFLOXACIN], the IC50 result is “Not Active”.
`CCC1(c2ccccc2)C(=O)NCNC1=O` [PRIMIDONE]: the IC50 result is on record as “Not Active”.
Same read-out and setting: as for `O=C1NC(=O)C(c2ccccc2)(c2ccccc2)N1` [PHENYTOIN], the entry is “Not Active”; as for `COc1ccc2c(c1)c(CC(=O)OCC(=O)O)c(C)n2C(=O)c1ccc(Cl)cc1` [ACEMETACIN], “Not Active”; as for `CC[N+](CC)(CC)CCOc1cccc(OCC[N+](CC)(CC)CC)c1OCC[N+](CC)(CC)CC.[I-].[I-].[I-]` [GALLAMINE TRIETHIODIDE], “Not Active”.

For the next experiment, the target named is T2, Cholecystokinin receptor type A (Homo sapiens, UniProt P32238). Note: in other assays of this panel Not Active means under 50% inhibition at 10 µM.
T2 sequence (P32238 whole entry): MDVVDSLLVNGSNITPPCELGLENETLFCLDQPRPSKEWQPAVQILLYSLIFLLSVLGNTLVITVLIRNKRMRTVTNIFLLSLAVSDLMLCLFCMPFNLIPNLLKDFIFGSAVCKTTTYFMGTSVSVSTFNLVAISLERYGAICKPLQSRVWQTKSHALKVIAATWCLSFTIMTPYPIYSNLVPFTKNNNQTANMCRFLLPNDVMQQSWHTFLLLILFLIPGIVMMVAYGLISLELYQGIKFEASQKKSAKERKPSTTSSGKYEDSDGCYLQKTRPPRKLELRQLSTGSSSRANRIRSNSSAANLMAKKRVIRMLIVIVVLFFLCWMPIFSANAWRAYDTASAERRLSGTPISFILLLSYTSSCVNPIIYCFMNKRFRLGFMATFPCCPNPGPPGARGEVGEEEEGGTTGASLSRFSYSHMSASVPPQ
Experiment: not given
The class given is cell membranes, Membrane. Particulars: 1321-n1.
For `C=C1CC[C@H](O)C/C1=C/C=C1\CCC[C@]2(C)[C@@H]([C@H](C)/C=C/[C@H](C)C(C)C)CC[C@@H]12` [ERGOCALCIFEROL], the IC50 result is “Not Active”.
Consider `COc1c(N2CCNC(C)C2)c(F)cc2c(=O)c(C(=O)O)cn(C3CC3)c12` (stereo not drawn) [GATIFLOXACIN], for which the IC50 result was “Not Active”.
As to `CCC1(c2ccccc2)C(=O)NCNC1=O` [PRIMIDONE], the IC50 result is reported as “Not Active”.
With `O=C1NC(=O)C(c2ccccc2)(c2ccccc2)N1` [PHENYTOIN], the IC50 entry was “Not Active”.
The same measure, in the same setting: next, `COc1ccc2c(c1)c(CC(=O)OCC(=O)O)c(C)n2C(=O)c1ccc(Cl)cc1` [ACEMETACIN]: “Not Active”; `CC[N+](CC)(CC)CCOc1cccc(OCC[N+](CC)(CC)CC)c1OCC[N+](CC)(CC)CC.[I-].[I-].[I-]` [GALLAMINE TRIETHIODIDE]: “Not Active”.

A further experiment deals with T3, Vasoactive intestinal polypeptide receptor 1 (Homo sapiens, UniProt P32241).
T3 sequence (P32241 whole entry): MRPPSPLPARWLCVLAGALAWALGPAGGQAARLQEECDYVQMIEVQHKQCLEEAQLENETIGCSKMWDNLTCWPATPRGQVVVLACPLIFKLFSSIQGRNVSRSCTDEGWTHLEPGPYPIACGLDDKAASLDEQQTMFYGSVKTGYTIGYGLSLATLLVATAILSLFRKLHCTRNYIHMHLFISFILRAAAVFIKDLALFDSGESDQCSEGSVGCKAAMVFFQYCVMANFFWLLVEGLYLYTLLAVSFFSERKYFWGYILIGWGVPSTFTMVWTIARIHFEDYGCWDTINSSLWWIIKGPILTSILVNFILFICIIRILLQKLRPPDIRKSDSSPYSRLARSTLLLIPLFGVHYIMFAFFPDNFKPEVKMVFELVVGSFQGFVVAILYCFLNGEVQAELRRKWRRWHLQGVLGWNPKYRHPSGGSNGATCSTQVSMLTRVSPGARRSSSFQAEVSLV
Experiment: not given
The class given is cell membranes, Membrane. Particulars: ht-29.
For `C=C1CC[C@H](O)C/C1=C/C=C1\CCC[C@]2(C)[C@@H]([C@H](C)/C=C/[C@H](C)C(C)C)CC[C@@H]12` [ERGOCALCIFEROL], the IC50 result was “Not Active”.
Consider `COc1c(N2CCNC(C)C2)c(F)cc2c(=O)c(C(=O)O)cn(C3CC3)c12` (stereo not drawn) [GATIFLOXACIN], for which the IC50 entry is on record as “Not Active”.
With `CCC1(c2ccccc2)C(=O)NCNC1=O` [PRIMIDONE], the IC50 entry is recorded as “Not Active”.
Regarding `O=C1NC(=O)C(c2ccccc2)(c2ccccc2)N1` [PHENYTOIN], the IC50 entry is “Not Active”.
On the same count and under the same terms, as for `COc1ccc2c(c1)c(CC(=O)OCC(=O)O)c(C)n2C(=O)c1ccc(Cl)cc1` [ACEMETACIN], the entry is “Not Active”; as for `CC[N+](CC)(CC)CCOc1cccc(OCC[N+](CC)(CC)CC)c1OCC[N+](CC)(CC)CC.[I-].[I-].[I-]` [GALLAMINE TRIETHIODIDE], “Not Active”.

The target in a further experiment is T4, C-X-C chemokine receptor type 1 (Homo sapiens, UniProt P25024). Note: in other assays of this panel Not Active means under 50% inhibition at 10 µM.
T4 sequence (P25024 whole entry): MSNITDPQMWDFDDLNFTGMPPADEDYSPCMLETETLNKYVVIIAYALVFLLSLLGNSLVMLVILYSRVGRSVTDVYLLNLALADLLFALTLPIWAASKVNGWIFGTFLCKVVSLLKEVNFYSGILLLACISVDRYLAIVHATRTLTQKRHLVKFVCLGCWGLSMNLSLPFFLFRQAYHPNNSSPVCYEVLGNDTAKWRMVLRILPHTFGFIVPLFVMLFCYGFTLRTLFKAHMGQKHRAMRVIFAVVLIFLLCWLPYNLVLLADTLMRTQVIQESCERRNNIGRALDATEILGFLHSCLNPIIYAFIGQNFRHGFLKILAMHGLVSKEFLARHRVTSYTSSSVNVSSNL
Experiment: not given
Settings: not given
For the compound `C=C1CC[C@H](O)C/C1=C/C=C1\CCC[C@]2(C)[C@@H]([C@H](C)/C=C/[C@H](C)C(C)C)CC[C@@H]12` [ERGOCALCIFEROL], the IC50 result is “Not Active”.
On the same count and under the same terms, next, `COc1c(N2CCNC(C)C2)c(F)cc2c(=O)c(C(=O)O)cn(C3CC3)c12` (stereo not drawn) [GATIFLOXACIN]: “Not Active”; `CCC1(c2ccccc2)C(=O)NCNC1=O` [PRIMIDONE]: “Not Active”; `O=C1NC(=O)C(c2ccccc2)(c2ccccc2)N1` [PHENYTOIN]: “Not Active”.
As to `COc1ccc2c(c1)c(CC(=O)OCC(=O)O)c(C)n2C(=O)c1ccc(Cl)cc1` [ACEMETACIN], the IC50 entry is given as “Not Active”.
The same measure, in the same setting: as for `CC[N+](CC)(CC)CCOc1cccc(OCC[N+](CC)(CC)CC)c1OCC[N+](CC)(CC)CC.[I-].[I-].[I-]` [GALLAMINE TRIETHIODIDE], the entry is “Not Active”.
